Experimental data reported in patent US20260374756A1, “HETEROCYCLIC COMPOUNDS AS INHIBITORS OF MONOACYLGLYCEROL LIPASE (MAGL)” (Hoffmann-La Roche Inc., priority 2022, published 2026).

Molecular target: T1, hMAGL (Homo sapiens, UniProt Q99685)
T1 sequence (Q99685 1-303): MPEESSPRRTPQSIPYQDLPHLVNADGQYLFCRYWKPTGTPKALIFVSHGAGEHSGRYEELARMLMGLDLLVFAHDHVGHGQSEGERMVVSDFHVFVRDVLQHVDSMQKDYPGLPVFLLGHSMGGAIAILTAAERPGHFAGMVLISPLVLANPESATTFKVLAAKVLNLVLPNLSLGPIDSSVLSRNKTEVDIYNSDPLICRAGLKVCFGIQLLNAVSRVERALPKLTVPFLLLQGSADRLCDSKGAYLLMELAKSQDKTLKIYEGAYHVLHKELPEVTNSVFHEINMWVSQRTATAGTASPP
Assay: 2-AG assay: MAGL inhibition, hydrolysis of 2-arachidonoylglycerol to arachidonic acid followed by mass spectrometry
Format: biochemical
How it was run: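 Read-out is LC-MS/MS of arachidonic acid released from 2-arachidonoylglycerol (8 μM final), normalised to d8-arachidonic acid internal standard after acetonitrile quench. Enzyme […] and compound were pre-mixed 15 min, then reacted 30 min, both at RT, in Tris/EDTA buffer with 0.01% Tween-20 and 2.5% DMSO.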

Row | IC50 [nM] | SMILES
1 | 161 | O=C(N1CC2(CC(n3cnc(C4(O)CC4)n3)C2)C1)N1CC2(CN(Cc3cc(C(F)(F)F)ns3)C2)C1 [Example 152, [6-[3-(1-hydroxycyclopropyl)-1,2,4-triazol-1-yl]-2-azaspiro[3.3]heptan-2-yl]-[6-[[3-(trifluoromethyl)isothiazol-5-yl]methyl]-2,6-diazaspiro[3.3]heptan-2-yl]methanone]
2 | 95.7 | O=C(N1CC2(CC(n3cnc(C4CC4)n3)C2)C1)N1CC2(CN(Cc3ccnn3CC(F)F)C2)C1 [Example 261, [6-(3-cyclopropyl-1,2,4-triazol-1-yl)-2-azaspiro[3.3]heptan-2-yl]-[6-[[2-(2,2-difluoroethyl)pyrazol-3-yl]methyl]-2,6-diazaspiro[3.3]heptan-2-yl]methanone]
3 | 4.46 | Cn1ncc(CN2CC3(C2)CN(C(=O)N2CC4(CC(n5cnc(C6CC6)n5)C4)C2)C3)c1C(F)(F)F [Example 165, [6-(3-cyclopropyl-1,2,4-triazol-1-yl)-2-azaspiro[3.3]heptan-2-yl]-[6-[[1-methyl-5-(trifluoromethyl)pyrazol-4-yl]methyl]-2,6-diazaspiro[3.3]heptan-2-yl]methanone]
4 | 66.6 | Cc1onc(C2CC2)c1CN1CC2(C1)CN(C(=O)N1CC3(CC(n4cnc(C(F)(F)F)n4)C3)C1)C2 [Example 267, [6-[(3-cyclopropyl-5-methyl-isoxazol-4-yl)methyl]-2,6-diazaspiro[3.3]heptan-2-yl]-[6-[3-(trifluoromethyl)-1,2,4-triazol-1-yl]-2-azaspiro[3.3]heptan-2-yl]methanone]
5 | 4.31 | O=C(N1CC2(CC(Cn3ncc(C(F)(F)F)n3)C2)C1)N1CC2(CC(n3cnc(C4(O)CC4)n3)C2)C1 [Example 292, [6-[3-(1-hydroxycyclopropyl)-1,2,4-triazol-1-yl]-2-azaspiro[3.3]heptan-2-yl]-[6-[[4-(trifluoromethyl)triazol-2-yl]methyl]-2-azaspiro[3.3]heptan-2-yl]methanone]
6 | 149 | O=C(N1CC2(CC(n3cnc(C(F)(F)F)n3)C2)C1)N1CC2(CN(Cc3nc(CC(F)(F)F)no3)C2)C1 [Example 206]
7 | 18.1 | O=C(N1CC2(CC(Cc3nc(C(F)(F)F)no3)C2)C1)N1CC2(CC(n3cnc(C4(O)CC4)n3)C2)C1 [Example 138]
8 | 7.9 | O=C(N1CC2(CC(n3cnc(C4CC4)n3)C2)C1)N1CC2(CN(Cc3cn[nH]c3C(F)(F)F)C2)C1 [Example 50, [6-(3-cyclopropyl-1,2,4-triazol-1-yl)-2-azaspiro[3.3]heptan-2-yl]-[6-[[5-(trifluoromethyl)-1H-pyrazol-4-yl]methyl]-2,6-diazaspiro[3.3]heptan-2-yl]methanone]
9 | 5.6 | Cn1nc(C(F)(F)F)cc1CN1CC2(C1)CN(C(=O)N1CC3(CC(n4cnc(C5CC5)n4)C3)C1)C2 [Example 167, [6-(3-cyclopropyl-1,2,4-triazol-1-yl)-2-azaspiro[3.3]heptan-2-yl]-[6-[[2-methyl-5-(trifluoromethyl)pyrazol-3-yl]methyl]-2,6-diazaspiro[3.3]heptan-2-yl]methanone]
10 | 13.6 | CC(C)(C)n1nccc1CN1CC2(C1)CN(C(=O)N1CC3(CC(n4cnc(C5CC5)n4)C3)C1)C2 [Example 276, [6-[(2-tert-butylpyrazol-3-yl)methyl]-2,6-diazaspiro[3.3]heptan-2-yl]-[6-(3-cyclopropyl-1,2,4-triazol-1-yl)-2-azaspiro[3.3]heptan-2-yl]methanone]
11 | 24.5 | O=C(N1CC2(CC(Cc3nc(C(F)(F)F)co3)C2)C1)N1CC2(CC(n3cnc(C4(O)CC4)n3)C2)C1 [Example 23, [6-[3-(1-hydroxycyclopropyl)-1,2,4-triazol-1-yl]-2-azaspiro[3.3]heptan-2-yl]-[6-[[4-(trifluoromethyl)oxazol-2-yl]methyl]-2-azaspiro[3.3]heptan-2-yl]methanone]
12 | 146 | O=C(N1CC2(CC(n3cnc(C(F)(F)F)n3)C2)C1)N1CC2(CN(Cc3ccnn3C(F)(F)F)C2)C1 [Example 225, [6-[[2-(trifluoromethyl)pyrazol-3-yl]methyl]-2,6-diazaspiro[3.3]heptan-2-yl]-[6-[3-(trifluoromethyl)-1,2,4-triazol-1-yl]-2-azaspiro[3.3]heptan-2-yl]methanone]
13 | 0.1 | O=C(N1CC2(CC(Cc3nsc(C(F)(F)F)n3)C2)C1)N1CC2(CC(n3cnc(C4CC4)n3)C2)C1 [Example 21, [6-(3-cyclopropyl-1,2,4-triazol-1-yl)-2-azaspiro[3.3]heptan-2-yl]-[6-[[5-(trifluoromethyl)-1,2,4-thiadiazol-3-yl]methyl]-2-azaspiro[3.3]heptan-2-yl]methanone]
14 | 2.86 | O=C(N1CC2(CCN(Cc3ncc(C(F)F)s3)CC2)C1)N1CC2(CC(n3cnc(C4CC4)n3)C2)C1 [Example 32]
15 | 8.94 | O=C(N1CC2(CC(Cc3nc(C(F)(F)F)cs3)C2)C1)N1CC2(CC(n3cnc(C4(O)CC4)n3)C2)C1 [Example 106, [6-[3-(1-hydroxycyclopropyl)-1,2,4-triazol-1-yl]-2-azaspiro[3.3]heptan-2-yl]-[6-[[4-(trifluoromethyl)thiazol-2-yl]methyl]-2-azaspiro[3.3]heptan-2-yl]methanone]
16 | 110 | Cc1cc(C(F)(F)F)n(CC2CC3(C2)CN(C(=O)N2CC4(CC(n5cnc(C6(O)CC6)n5)C4)C2)C3)n1 [Example 73]
17 | 158 | O=C(N1CC2(CC(n3cnc(C(F)(F)F)n3)C2)C1)N1CC2(CN(Cc3nc[nH]c3C(F)(F)F)C2)C1 [Example 237, [6-[[5-(trifluoromethyl)-1H-imidazol-4-yl]methyl]-2,6-diazaspiro[3.3]heptan-2-yl]-[6-[3-(trifluoromethyl)-1,2,4-triazol-1-yl]-2-azaspiro[3.3]heptan-2-yl]methanone]
18 | 11.9 | O=C(N1CC2(CC(n3cnc(C4CC4)n3)C2)C1)N1CC2(CN(Cc3nc(C(F)(F)F)no3)C2)C1 [Example 173, [6-(3-cyclopropyl-1,2,4-triazol-1-yl)-2-azaspiro[3.3]heptan-2-yl]-[6-[[3-(trifluoromethyl)-1,2,4-oxadiazol-5-yl]methyl]-2,6-diazaspiro[3.3]heptan-2-yl]methanone]
19 | 4.09 | Cc1cc(C(F)(F)F)nn1CC1CC2(C1)CN(C(=O)N1CC3(CC(n4cnc(C5CC5)n4)C3)C1)C2 [Example 69, [6-(3-cyclopropyl-1,2,4-triazol-1-yl)-2-azaspiro[3.3]heptan-2-yl]-[6-[[5-methyl-3-(trifluoromethyl)pyrazol-1-yl]methyl]-2-azaspiro[3.3]heptan-2-yl]methanone]
20 | 2.23 | CCn1nc(C(F)(F)F)cc1CN1CC2(C1)CN(C(=O)N1CC3(CC(n4cnc(C5CC5)n4)C3)C1)C2 [Example 170, [6-(3-cyclopropyl-1,2,4-triazol-1-yl)-2-azaspiro[3.3]heptan-2-yl]-[6-[[2-ethyl-5-(trifluoromethyl)pyrazol-3-yl]methyl]-2,6-diazaspiro[3.3]heptan-2-yl]methanone]
21 | 178 | O=C(N1CC2(CC(n3cnc(C(F)(F)F)n3)C2)C1)N1CC2(CN(Cc3ncoc3C(F)(F)F)C2)C1 [Example 220]
22 | 735 | O=C(N1CC2(CC(n3cnc(C4CC4)n3)C2)C1)N1CC2(CN(Cc3cn(CC(F)(F)F)nn3)C2)C1 [Example 108, [6-(3-cyclopropyl-1,2,4-triazol-1-yl)-2-azaspiro[3.3]heptan-2-yl]-[6-[[1-(2,2,2-trifluoroethyl)triazol-4-yl]methyl]-2,6-diazaspiro[3.3]heptan-2-yl]methanone]
23 | 13.7 | O=C(N1CC2(CC(n3cnc(C4CC4)n3)C2)C1)N1CC2(CN(Cc3nc(C(F)(F)F)co3)C2)C1 [Example 217, [6-(3-cyclopropyl-1,2,4-triazol-1-yl)-2-azaspiro[3.3]heptan-2-yl]-[6-[[4-(trifluoromethyl)oxazol-2-yl]methyl]-2,6-diazaspiro[3.3]heptan-2-yl]methanone]
24 | 66.8 | O=C(N1CC2(CC(n3cnc(C4CC4)n3)C2)C1)N1CC2(CN(Cc3nnc(C(F)(F)F)s3)C2)C1 [Example 83, [6-(3-cyclopropyl-1,2,4-triazol-1-yl)-2-azaspiro[3.3]heptan-2-yl]-[6-[[5-(trifluoromethyl)-1,3,4-thiadiazol-2-yl]methyl]-2,6-diazaspiro[3.3]heptan-2-yl]methanone]
25 | 145 | O=C(N1CC2(CC(n3cnc(C(F)(F)F)n3)C2)C1)N1CC2(CN(Cc3nnc(C(F)(F)F)s3)C2)C1 [Example 82, [6-[[5-(trifluoromethyl)-1,3,4-thiadiazol-2-yl]methyl]-2,6-diazaspiro[3.3]heptan-2-yl]-[6-[3-(trifluoromethyl)-1,2,4-triazol-1-yl]-2-azaspiro[3.3]heptan-2-yl]methanone]
26 | 2 | CC(C)(C)c1noc(CN2CC3(C2)CN(C(=O)N2CC4(CC(n5cnc(C6CC6)n5)C4)C2)C3)n1 [Example 266, [6-[(3-tert-butyl-1,2,4-oxadiazol-5-yl)methyl]-2,6-diazaspiro[3.3]heptan-2-yl]-[6-(3-cyclopropyl-1,2,4-triazol-1-yl)-2-azaspiro[3.3]heptan-2-yl]methanone]
27 | 302 | O=C(N1CC2(CCC(Cc3nnc(C(F)(F)F)[nH]3)CC2)C1)N1CC2(CC(n3cnc(C4CC4)n3)C2)C1 [Example 36, [6-(3-cyclopropyl-1,2,4-triazol-1-yl)-2-azaspiro[3.3]heptan-2-yl]-[7-[[5-(trifluoromethyl)-4H-1,2,4-triazol-3-yl]methyl]-2-azaspiro[3.5]nonan-2-yl]methanone]
